Assay results taken from patent US10028992B2, “Methods of treating muscular dystrophy” (BOARD OF REGENTS OF THE NEVADA SYSTEM OF HIGHER EDUCATION …, priority 2012, dated 2018).

System: α7 integrin promoter
Test: muscle cell-based assay: α7βgal+/− myoblasts/myotubes, LacZ reporter, β-galactosidase cleavage of FDG
Design: species or system mouse
Settings: Myotubes; for Results in a α7+/− β-galactosidase assay, Myotubes, 0.5 uM: compound at 0.5 uM; for Results in a α7+/− β-galactosidase assay, Myotubes, 1 uM: compound at 1 uM; for Results in a α7+/− β-galactosidase assay, Myotubes, 5 uM: compound at 5 uM; for Results in a α7+/− β-galactosidase assay, Myotubes, 10 uM: compound at 10 uM; for Results in a α7+/− β-galactosidase assay, Myotubes, 20 uM: compound at 20 uM; for Results in a α7+/− β-galactosidase assay, Myotubes, 40 uM: compound at 40 uM
Procedure, shortened: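 Primary α7βgal+/− mouse myoblasts (LacZ knocked into α7 integrin exon 1, promoter retained), differentiated; promoter activity read as β-galactosidase conversion of non-fluorescent FDG to fluorescein. Hits followed by dose-response, western analysis and myostatin counterscreen.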

SMILES | Results in a α7+/− β-galactosidase assay, Myotubes, 0.5 uM | Results in a α7+/− β-galactosidase assay, Myotubes, 1 uM | Results in a α7+/− β-galactosidase assay, Myotubes, 5 uM | Results in a α7+/− β-galactosidase assay, Myotubes, 10 uM | Results in a α7+/− β-galactosidase assay, Myotubes, 20 uM | Results in a α7+/− β-galactosidase assay, Myotubes, 40 uM
COC(=O)c1cc(S(=O)(=O)NCC2CCN(Cc3ccc(Cl)cc3)CC2)cn1C [drawing 464] | −0.00414 | −0.05118 | −0.09401 | −0.08097 | −0.09607 | −0.07382
COc1ccc(C(=O)Cn2nnc(-c3ccccc3NC(=O)c3ccco3)n2)cc1 [drawing 465] | 0.1086 | 0.1215 | −0.1502 | −0.3147 | −0.5196 | −0.8196
N#Cc1nc(COc2ccccc2)oc1N1CCCC1 [drawing 466] | −0.1447 | −0.2423 | −0.3897 | −0.2892 | −0.5781 | −0.8948
CCCc1nnc(SCC(=O)NC2CCCC2)n1CCOC [drawing 467] | −0.09246 | 0.01763 | −0.3088 | 0.4536 | −0.2024 | −0.4694
Nc1cccc(/C=C/C(=O)O)c1 [drawing 468] | 0.04663 | −0.01629 | −0.2823 | −0.1292 | −0.1085 | −0.2156
CCCC1C(c2cc(OC)c(OC)c(OC)c2)=Nc2c1c(=O)[nH]c(=O)n2Cc1ccccc1 (stereo not drawn) [drawing 469] | −0.09222 | −0.1313 | −0.484 | −0.34 | −0.2089 | −0.2856
CC(C)(C)c1ccc(C(=O)OCC(=O)Nc2sc3c(c2C#N)CCC3)cc1 [drawing 470] | −0.03535 | −0.03363 | 0.4586 | −0.1998 | −0.05439 | −0.05938
CCOc1cc(C)c(S(=O)(=O)N2CCCCC2)cc1C [drawing 471] | −0.1603 | −0.08287 | −0.1415 | −0.1282 | 0.01353 | −0.03791
Cc1cc(OCC(=O)NC(C)C)ccc1Cl [drawing 472] | −0.02692 | −0.04637 | −0.3868 | −0.4196 | −0.2513 | −0.2531
Cc1ccsc1CN(C)CC(=O)Cc1ccc([N+](=O)[O-])cc1Cl [drawing 473] | −0.05036 | −0.06852 | −0.2581 | −0.2695 | −0.1438 | −0.2052
O=C1c2ccccc2C(=O)C1(CC(O)O)c1ccccc1 [drawing 474] | −0.08689 | 0.05823 | −0.2367 | −0.3763 | −0.3304 | −0.4389
Cc1ccc(Cn2nnc3c(O)nc(C4CCCN(C(=O)c5ccco5)C4)nc32)cc1 (stereo not drawn) [drawing 475] | −0.1767 | −0.1614 | −0.2961 | −0.3051 | −0.225 | −0.2551
Cc1ccc(NS(=O)(=O)c2ccc(-c3ccc(O)nn3)o2)c(C)c1 [drawing 477] | −0.04997 | 0.003075 | −0.3008 | −0.389 | −0.09047 | −0.1539
CCCCN1CC(=O)N2Cc3[nH]c4ccccc4c3C[C@H]2C1=O [drawing 478] | −0.1229 | −0.1432 | −0.3665 | −0.4899 | −0.2121 | −0.2272
CCC(CC)C(=O)Nc1c(C(=O)N2CCN(c3ccccc3)CC2)oc2ccccc12 [drawing 479] | −0.04763 | −0.04983 | −0.2904 | −0.3853 | −0.08708 | −0.02043
Cc1nc(/C=C2\C(=O)Nc3ccccc32)c[nH]1 [drawing 480] | 0.01879 | −0.05703 | 0.093 | 0.007066 | 0.01022 | −0.04283
O=C(NCCc1ccc(Cl)cc1)C1CCCO1 (stereo not drawn) [drawing 481] | 0.008299 | −0.0666 | 0.2373 | −0.07246 | −0.08414 | −0.169
CCNC(=O)C(=O)Nc1cc2c3c(c1)CCN3C(=O)CC2 [drawing 482] | 0.05071 | −0.07574 | 0.4036 | −0.03505 | −0.1926 | −0.2686
Cc1cccc(NCC(=O)N/N=C/c2ccccn2)c1 [drawing 483] | 0.07633 | −0.04251 | 0.2712 | −0.04805 | 0.03613 | −0.1705
COc1ccc(CN2CCNC(=O)C2CC(=O)NCCc2c[nH]c3ccccc23)c(OC)c1 (stereo not drawn) [drawing 484] | −0.059 | −0.1025 | 0.1466 | −0.2654 | −0.1345 | −0.1806
O=c1c2cc(-c3ccccc3)sc2nc2n1N=C(c1ccccc1)CS2 [drawing 485] | 0.02668 | −0.1163 | 0.0299 | −0.3812 | −0.1377 | −0.1734
Nc1ncnc(NCc2ccccc2)c1[N+](=O)[O-] [drawing 486] | 0.008395 | −0.1282 | 0.2507 | −0.3338 | −0.03158 | −0.2067
O=CN1CCN(C(=O)CC(c2ccccc2)c2cc(Br)ccc2O)CC1 (stereo not drawn) [drawing 487] | −0.0643 | −0.1354 | 0.1295 | −0.2355 | −0.0629 | −0.1726
Cc1ccc2c(c1)/C(=C/c1ccco1)C(=O)N2 [drawing 488] | −0.00427 | −0.00615 | 0.07579 | −0.3334 | 0.0134 | −0.2855
O=C1CCC(C(=O)N2CCSCC2)CN1Cc1ccc(Cl)cc1 (stereo not drawn) [drawing 489] | 0.02632 | 0.1369 | 0.02663 | 0.3226 | 0.2089 | 0.5544
